Laboratory results published in patent US20140058103A1, “Inhibitors of PI3K-Delta and Methods of Their Use and Manufacture” (Exelixis, Inc., priority 2010, published 2014).

The molecules below were run against PI3K delta (Homo sapiens, UniProt O00329) (assay: Luciferase-coupled chemiluminescence kinase assay (ATP consumption, KinaseGlo)).
Sequence of PI3K delta (O00329 whole entry): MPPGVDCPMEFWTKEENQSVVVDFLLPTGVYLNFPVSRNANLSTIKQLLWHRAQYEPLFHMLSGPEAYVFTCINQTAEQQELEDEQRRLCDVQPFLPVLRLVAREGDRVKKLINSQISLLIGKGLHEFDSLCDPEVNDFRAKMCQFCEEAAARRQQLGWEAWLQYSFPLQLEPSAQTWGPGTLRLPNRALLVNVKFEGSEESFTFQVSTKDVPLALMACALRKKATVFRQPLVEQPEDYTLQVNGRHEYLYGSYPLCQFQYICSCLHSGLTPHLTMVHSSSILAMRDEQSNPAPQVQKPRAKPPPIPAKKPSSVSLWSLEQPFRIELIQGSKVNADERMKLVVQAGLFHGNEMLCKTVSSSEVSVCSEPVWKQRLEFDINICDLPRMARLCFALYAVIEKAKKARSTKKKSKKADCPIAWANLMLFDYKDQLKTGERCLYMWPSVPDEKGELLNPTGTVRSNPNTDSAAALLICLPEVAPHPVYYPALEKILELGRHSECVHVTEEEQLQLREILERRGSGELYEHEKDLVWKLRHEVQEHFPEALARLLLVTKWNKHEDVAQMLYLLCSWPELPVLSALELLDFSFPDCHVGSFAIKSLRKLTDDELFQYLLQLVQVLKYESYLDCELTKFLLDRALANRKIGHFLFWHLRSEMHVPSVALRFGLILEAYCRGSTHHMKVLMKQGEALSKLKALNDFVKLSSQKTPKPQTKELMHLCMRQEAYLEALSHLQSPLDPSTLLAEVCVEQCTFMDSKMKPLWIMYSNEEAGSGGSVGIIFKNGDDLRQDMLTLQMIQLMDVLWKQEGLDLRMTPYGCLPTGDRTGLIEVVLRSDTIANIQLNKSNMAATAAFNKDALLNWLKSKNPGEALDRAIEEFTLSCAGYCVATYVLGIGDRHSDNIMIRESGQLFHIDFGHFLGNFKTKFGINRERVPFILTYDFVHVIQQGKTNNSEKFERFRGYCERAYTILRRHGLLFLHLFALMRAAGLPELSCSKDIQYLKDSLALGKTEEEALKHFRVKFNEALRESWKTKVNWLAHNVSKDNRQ
Sequence of PI3K delta (P27986 whole entry partner): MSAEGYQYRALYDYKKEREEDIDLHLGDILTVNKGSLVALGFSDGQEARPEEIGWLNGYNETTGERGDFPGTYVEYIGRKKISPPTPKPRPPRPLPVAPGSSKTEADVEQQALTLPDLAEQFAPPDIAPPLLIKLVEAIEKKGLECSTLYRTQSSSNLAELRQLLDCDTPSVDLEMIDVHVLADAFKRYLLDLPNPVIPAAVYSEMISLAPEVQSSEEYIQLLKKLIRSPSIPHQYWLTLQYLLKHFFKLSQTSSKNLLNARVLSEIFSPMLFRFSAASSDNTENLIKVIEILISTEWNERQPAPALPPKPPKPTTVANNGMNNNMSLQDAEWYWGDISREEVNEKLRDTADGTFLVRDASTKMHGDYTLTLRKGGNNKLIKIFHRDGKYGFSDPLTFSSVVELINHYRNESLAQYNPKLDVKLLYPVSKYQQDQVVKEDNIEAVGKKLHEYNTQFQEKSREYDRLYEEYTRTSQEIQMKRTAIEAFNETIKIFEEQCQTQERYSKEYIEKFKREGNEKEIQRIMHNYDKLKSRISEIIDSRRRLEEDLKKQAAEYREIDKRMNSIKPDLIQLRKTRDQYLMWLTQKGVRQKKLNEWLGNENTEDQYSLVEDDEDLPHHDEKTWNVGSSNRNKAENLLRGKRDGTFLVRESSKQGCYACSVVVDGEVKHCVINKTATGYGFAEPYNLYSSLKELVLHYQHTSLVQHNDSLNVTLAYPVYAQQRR
Assay type: biochemical
Outline: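 ATP consumption measured by KinaseGlo luciferase chemiluminescence after a 2 h reaction at ambient temperature, with ATP at or below the kinase KM. Ten inhibitor concentrations per curve; IC50 from four-parameter nonlinear regression.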
Molecule `Cn1cc(-c2nc3c(N4CCN(S(=O)(=O)c5c(Cl)cccc5Cl)CC4)ncnc3n2C)cn1` [Compound 391, 6-{4-[(2,6-dichlorophenyl)sulfonyl]piperazin-1-yl}-9-methyl-8-(1-methyl-1H-pyrazol-4-yl)-9H-purine] has an IC50 of 250 to 500 nM. `CC(=O)c1ccc(S(=O)(=O)N2CCN(c3ncnc4c3nc(-c3cnn(C)c3)n4C)CC2)cc1` [Compound 384, 1-[4-({4-[9-methyl-8-(1-methyl-1H-pyrazol-4-yl)-9H-purin-6-yl]piperazin-1-yl)sulfonyl)phenyl]ethanone] gave an IC50 of 500 to 1500 nM. `Cn1c(-c2cncc(Br)c2)nc2c(N3CCC(n4c(=O)[nH]c5ccccc54)CC3)ncnc21` [Compound 285, 1-{1-[8-(5-bromopyridin-3-yl)-9-methyl-9H-purin-6-yl]piperidin-4-yl}-1,3-dihydro-2H-benzimidazol-2-one] was tested, and the IC50 was < 50 nM. `CCn1c(-c2cnc(N(C)C)nc2)nc2c(N3CCC(n4c(=O)[nH]c5ccccc54)CC3)ncnc21` [Compound 320, 1-[1-{8-[2-(dimethylamino)pyrimidin-5-yl]-9-ethyl-9H-purin-6-yl)piperidin-4-yl)-1,3-dihydro-2H-benzimidazol-2-one] was tested, and the IC50 was < 50 nM. With `Cn1c(C(=O)NCC2CC2)nc2c(N3CCC(n4c(=O)[nH]c5c(Cl)cccc54)CC3)ncnc21` [Compound 230, 6-[4-(4-chloro-2-oxo-2,3-dihydro-1H-benzimidazol-1-yl)piperidin-1-yl]-N-(cyclopropylmethyl)-9-methyl-9H-purine-8-carboxamide] the IC50 was 50 to 250 nM. In the case of `CCn1c(C(=O)N2CC[C@@H](F)C2)nc2c(N3CCC(n4c(=O)[nH]c5ccccc54)CC3)ncnc21` [Compound 186, 1-[1-(9-ethyl-8-{[(3R)-3-fluoropyrrolidin-1-yl]carbonyl}-9H-purin-6-yl)piperidin-4-yl]-1,3-dihydro-2H-benzimidazol-2-one], the IC50 is reported as < 50 nM. For `Cn1c(C(=O)NCC2CC2)nc2c(N3CCC4(CC3)C(=O)Nc3ccccc34)ncnc21` [Compound 6, N-(Cyclopropylmethyl)-9-methyl-6-(2-oxo-1,2-dihydro-1′H-spiro[indole-3,4′-piperidin]-1′-yl)-9H-purine-8-carboxamide], the IC50 was 50 to 250 nM. For `CC(C)Cc1nnc(-c2nc3c(N4CCC(n5c(=O)[nH]c6ccccc65)CC4)ncnc3n2C)o1` [Compound 204, 1-(1-{9-methyl-8-[5-(2-methylpropyl)-1,3,4-oxadiazol-2-yl]-9H-purin-6-yl}piperidin-4-yl)-1,3-dihydro-2H-benzimidazol-2-one], the IC50 was < 50 nM. With `Cn1cc(-c2nc3c(N4CCN(S(=O)(=O)c5cccc(C#N)c5)CC4)ncnc3n2C)cn1` [Compound 382, 3-({4-[9-methyl-8-(1-methyl-1H-pyrazol-4-yl)-9H-purin-6-yl]piperazin-1-yl)sulfonyl)benzonitrile] the IC50 was 250 to 500 nM. For `Cc1cncc(-c2nc3c(N4CCC(n5c(=O)[nH]c6ccccc65)CC4)ncnc3n2C)c1` [Compound 282, 1-{1-[9-methyl-8-(5-methylpyridin-3-yl)-9H-purin-6-yl]piperidin-4-yl}-1,3-dihydro-2H-benzimidazol-2-one], the IC50 was < 50 nM. For `CCn1c(-c2cccnc2)nc2c(N3CCC4(CC3)C(=O)Nc3ccccc34)ncnc21` [Compound 291, 1′-(9-ethyl-8-pyridin-3-yl-9H-purin-6-yl)spiro[indole-3,4′-piperidin]-2(1H)-one], the IC50 was < 50 nM. In the case of `CCn1c(C(=O)NCC(C)C)nc2c(N3CCC4(CC3)C(=O)Nc3ccccc34)ncnc21` [Compound 164, 9-ethyl-N-(2-methylpropyl)-6-(2-oxo-1,2-dihydro-1′H-spiro[indole-3,4′-piperidin]-1′-yl)-9H-purine-8-carboxamide], the IC50 is reported as < 50 nM. In the case of `Cn1c(C(=O)NCC2(O)CC2)nc2c(N3CCC(n4c(=O)[nH]c5ccccc54)CC3)ncnc21` [Compound 12, N-[(1-hydroxycyclopropyl)methyl]-9-methyl-6-[4-(2-oxo-2,3-dihydro-1H-benzimidazol-1-yl)piperidin-1-yl]-9H-purine-8-carboxamide], the IC50 is reported as 50 to 250 nM. With `CCn1c(C(=O)NCC(C)(C)O)nc2c(N3CCC4(CC3)C(=O)Nc3ccccc34)ncnc21` [Compound 224, 9-ethyl-N-(2-hydroxy-2-methylpropyl)-6-(2-oxo-1,2-dihydro-1′H-spiro[indole-3,4′-piperidin]-1′-yl)-9H-purine-8-carboxamide] the IC50 was < 50 nM. `Cn1cc(-c2nc3c(N4CCN(S(=O)(=O)c5ccc(Cl)cc5)CC4)ncnc3n2C)cn1` [Compound 374, 6-{4-[(4-chlorophenyl)sulfonyl]piperazin-1-yl)-9-methyl-8-(1-methyl-1H-pyrazol-4-yl)-9H-purine] showed an IC50 of 500 to 1500 nM. Molecule `COc1ncc(-c2nc3c(N4CCC(n5c(=O)[nH]c6ccccc65)CC4)ncnc3n2C)c(OC)n1` [Compound 308, 1-(1-{8-[2,4-bis(methyloxy)pyrimidin-5-yl]-9-methyl-9H-purin-6-yl)piperidin-4-yl)-1,3-dihydro-2H-benzimidazol-2-one] has an IC50 of 50 to 250 nM. For `Cn1c(-c2ccoc2)nc2c(N3CCC(n4c(=O)[nH]c5ccccc54)CC3)ncnc21` [Compound 265, 1-[1-(8-furan-3-yl-9-methyl-9H-purin-6-yl)piperidin-4-yl]-1,3-dihydro-2H-benzimidazol-2-one], the IC50 was 50 to 250 nM. `CCn1c(-c2cnc(N)nc2)nc2c(N3CCC(n4c(=O)[nH]c5ccccc54)CC3)ncnc21` [Compound 304, 1-{1-[8-(2-aminopyrimidin-5-yl)-9-ethyl-9H-purin-6-yl]piperidin-4-yl)-1,3-dihydro-2H-benzimidazol-2-one] was tested, and the IC50 was < 50 nM. `Cn1c(-c2ccc(N)nc2)nc2c(N3CCC(n4c(=O)[nH]c5ccccc54)CC3)ncnc21` [Compound 303, 1-{1-[8-(6-aminopyridin-3-yl)-9-methyl-9H-purin-6-yl]piperidin-4-yl}-1,3-dihydro-2H-benzimidazol-2-one] was tested, and the IC50 was < 50 nM. `CCn1c(C(=O)NCC(C)(C)O)nc2c(N3CCC(n4c(=O)[nH]c5ccccc54)CC3)ncnc21` [Compound 197, 9-ethyl-N-(2-hydroxy-2-methylpropyl)-6-[4-(2-oxo-2,3-dihydro-1H-benzimidazol-1-yl)piperidin-1-yl]-9H-purine-8-carboxamide] was tested, and the IC50 was < 50 nM. For `CCCCc1nc2c(N3CCC(n4c(=O)[nH]c5ccccc54)CC3)ncnc2n1C` [Compound 93, 1-[1-(8-butyl-9-methyl-9H-purin-6-yl)piperidin-4-yl]-1,3-dihydro-2H-benzimidazol-2-one], the IC50 was 500 to 1500 nM. `Cn1c(C(=O)NCC2CC2)nc2c(N3CCC4(CC3)OCc3ccccc34)ncnc21` [Compound 132, N-(cyclopropylmethyl)-9-methyl-6-(1′H,3H-spiro[2-benzofuran-1,4′-piperidin]-1′-yl)-9H-purine-8-carboxamide] was tested, and the IC50 was 500 to 1500 nM. `Cn1cc(-c2nc3c(N4CCN(S(=O)(=O)c5ccccc5Cl)CC4)ncnc3n2C)cn1` [Compound 375, 6-{4-[(2-chlorophenyl)sulfonyl]piperazin-1-yl}-9-methyl-8-(1-methyl-1H-pyrazol-4-yl)-9H-purine] gave an IC50 of 250 to 500 nM. For `CCn1c(C(=O)NCCC(C)C)nc2c(N3CCC(n4c(=O)[nH]c5ccccc54)CC3)ncnc21` [Compound 198, 9-ethyl-N-(3-methylbutyl)-6-[4-(2-oxo-2,3-dihydro-1H-benzimidazol-1-yl)piperidin-1-yl]-9H-purine-8-carboxamide], the IC50 was 50 to 250 nM. Molecule `Cn1c(C(=O)NCC2CC2)nc2c(N3CCC(n4nnc5ccccc54)CC3)ncnc21` [Compound 143, 6-[4-(1H-1,2,3-benzotriazol-1-yl)piperidin-1-yl]-N-(cyclopropylmethyl)-9-methyl-9H-purine-8-carboxamide] has an IC50 of 500 to 1500 nM. `Cn1c(C(=O)N2CCCC2)nc2c(N3CCC4(CC3)C(=O)NCN4c3ccccc3)ncnc21` [Compound 8, 8-[9-methyl-8-(pyrrolidin-1-ylcarbonyl)-9H-purin-6-yl]-1-phenyl-1,3,8-triazaspiro[4.5]decan-4-one] showed an IC50 of 250 to 500 nM. With `CCn1c(C(=O)NCC(F)(F)F)nc2c(N3CCC(n4c(=O)[nH]c5ccccc54)CC3)ncnc21` [Compound 155, 9-ethyl-6-[4-(2-oxo-2,3-dihydro-1H-benzimidazol-1-yl)piperidin-1-yl]-N-(2,2,2-trifluoroethyl)-9H-purine-8-carboxamide] the IC50 was < 50 nM. `Cn1c(C(=O)N2CC(O)C2)nc2c(N3CCC4(CC3)C(=O)Nc3ccccc34)ncnc21` [Compound 41, 1′-{8-[(3-hydroxyazetidin-1-yl)carbonyl]-9-methyl-9H-purin-6-yl}spiro[indole-3,4′-piperidin]-2(1H)-one] was tested, and the IC50 was 50 to 250 nM. Molecule `Cn1cc(-c2nc3c(N4CCN(S(=O)(=O)c5cccc(Cl)c5Cl)CC4)ncnc3n2C)cn1` [Compound 389, 6-{4-[(2,3-dichlorophenyl)sulfonyl]piperazin-1-yl}-9-methyl-8-(1-methyl-1H-pyrazol-4-yl)-9H-purine] has an IC50 of 250 to 500 nM. For `CC(CNC(=O)c1nc2c(N3CCC4(CC3)C(=O)Nc3ccccc34)ncnc2n1C)c1ccccc1` (stereo not shown) [Compound 31, 9-methyl-6-(2-oxo-1,2-dihydro-1′H-spiro[indole-3,4′-piperidin]-1′-yl)-N-(2-phenylpropyl)-9H-purine-8-carboxamide], the IC50 was 500 to 1500 nM. For `Cn1c(-c2ccc(C(F)(F)F)nc2)nc2c(N3CCC4(CC3)C(=O)Nc3ccccc34)ncnc21` [Compound 327, 1′-{9-methyl-8-[6-(trifluoromethyl)pyridin-3-yl]-9H-purin-6-yl}spiro[indole-3,4′-piperidin]-2(1H)-one], the IC50 was < 50 nM. `Cn1c(C(=O)N2CC(F)(F)C2)nc2c(N3CCC4(CC3)C(=O)Nc3ccccc34)ncnc21` [Compound 103, 1′-{8-[(3,3-difluoroazetidin-1-yl)carbonyl]-9-methyl-9H-purin-6-yl}spiro[indole-3,4′-piperidin]-2(1H)-one] was tested, and the IC50 was 50 to 250 nM. Molecule `Cc1c(-c2nc3c(N4CCC5(CC4)C(=O)Nc4ccccc45)ncnc3n2C)cnn1C` [Compound 393, 1′-(8-(1,5-dimethyl-1H-pyrazol-4-yl)-9-methyl-9H-purin-6-yl)spiro[indoline-3,4′-piperidin]-2-one] has an IC50 of 500 to 1500 nM. Molecule `Cn1c(C(=O)NCC2CC2)nc2c(N3CC(n4c(=O)[nH]c5ccccc54)C3)ncnc21` [Compound 137, N-(cyclopropylmethyl)-9-methyl-6-[3-(2-oxo-2,3-dihydro-1H-benzimidazol-1-yl)azetidin-1-yl]-9H-purine-8-carboxamide] has an IC50 of 50 to 250 nM.
